Drawing on ChEMBL document CHEMBL1136889, “The application of the phosphoramidate ProTide approach confers micromolar potency against hepatitis C virus on inactive agent 4'-azidoinosine: kinase bypass on a dual base/sugar modified nucleoside” (Bioorg Med Chem Lett, 2009), this text covers EC50 and CC50 for nine compounds.

pEC50: −log10 of the molar value. Where only a bound is given, the exact number is not on record here.

For one series, the system named is Hepatitis C virus. Briefly: Antiviral activity against HCV 1b in human HuH7 cells assessed as renilla luciferase activity by replicon assay. The format is functional, organism-based, Hepacivirus hominis. As to conditions: genotype 1b, Huh-7.
Series [1] in a line: Cytotoxicity against human HuH7 cells assessed as [3H]thymidine incorporation. The class given is cell-based, Huh-7. (In general: Uptake of a labelled nucleoside into DNA is a usual measure of proliferation.)

What is called pEC50 is −log10 of the EC50, conventionally taken in molar units. A word on the CC50: it is the concentration at which the toxic effect on the cells reaches its halfway point. For `CCOC(=O)[C@H](C)NP(=O)(OC[C@@]1(N=[N+]=[N-])O[C@@H](n2cnc3c(=O)[nH]cnc32)[C@H](O)[C@@H]1O)Oc1cccc2ccccc12` (stereo partly drawn), the pEC50 in the series on Hepatitis C virus was 4.79. Besides, in series [1], the CC50 is > 100 µM.

As to `CCOC(=O)[C@H](C)NP(=O)(OC[C@@]1(N=[N+]=[N-])O[C@@H](n2cnc3c(=O)[nH]cnc32)[C@H](O)[C@@H]1O)Oc1ccccc1` (stereo partly drawn), in the series with Hepatitis C virus, the pEC50 was < 4.00. In series [1], the 50% cytotoxic concentration (CC50) was > 100 µM.

As for `CC(C)OC(=O)[C@H](C)NP(=O)(OC[C@@]1(N=[N+]=[N-])O[C@@H](n2cnc3c(=O)[nH]cnc32)[C@H](O)[C@@H]1O)Oc1ccccc1` (stereo partly drawn), the pEC50 in the series with Hepatitis C virus was < 4.00. For the same compound, the CC50 in series [1] was > 100 µM.

For the compound `CC(C)OC(=O)[C@H](C)NP(=O)(OC[C@@]1(N=[N+]=[N-])O[C@@H](n2cnc3c(=O)[nH]cnc32)[C@H](O)[C@@H]1O)Oc1cccc2ccccc12` (stereo partly drawn), the pEC50 with Hepatitis C virus was 5.21. The CC50 in series [1] was > 100 µM.

For the compound `C[C@H](NP(=O)(OC[C@@]1(N=[N+]=[N-])O[C@@H](n2cnc3c(=O)[nH]cnc32)[C@H](O)[C@@H]1O)Oc1ccccc1)C(=O)OC(C)(C)C` (stereo partly drawn), the pEC50 with Hepatitis C virus is < 4.00. The CC50 in series [1] is > 100 µM.

For `C[C@H](NP(=O)(OC[C@@]1(N=[N+]=[N-])O[C@@H](n2cnc3c(=O)[nH]cnc32)[C@H](O)[C@@H]1O)Oc1cccc2ccccc12)C(=O)OC(C)(C)C` (stereo partly drawn), in the series with Hepatitis C virus, the negative logarithm of the EC50 (pEC50) was < 4.00. Also, in series [1], the CC50 is > 100 µM.

For `C[C@H](NP(=O)(OC[C@@]1(N=[N+]=[N-])O[C@@H](n2cnc3c(=O)[nH]cnc32)[C@H](O)[C@@H]1O)Oc1cccc2ccccc12)C(=O)OCc1ccccc1` (stereo partly drawn), the pEC50 with Hepatitis C virus is 5.37. Besides, in series [1], the CC50 was > 100 µM.

For the compound `C[C@H](NP(=O)(OC[C@@]1(N=[N+]=[N-])O[C@@H](n2cnc3c(=O)[nH]cnc32)[C@H](O)[C@@H]1O)Oc1ccccc1)C(=O)OCc1ccccc1` (stereo partly drawn), the pEC50 with Hepatitis C virus was < 4.00. For the same compound, in series [1], the CC50 was > 100 µM.

Turning to `[N-]=[N+]=N[C@]1(CO)O[C@@H](n2cnc3c(=O)[nH]cnc32)[C@H](O)[C@@H]1O`, the negative-log EC50 (pEC50) with Hepatitis C virus was < 4.00. In addition, in series [1], the CC50 is > 100 µM.
